Here are results for 1 compound from PMC5004293, “Characterization of FRM-36143 as a new γ-secretase modulator for the potential treatment of familial Alzheimer’s disease” (Alzheimer's Research & Therapy, 2016).

Data set [1] relates to γ-secretase. Kind of data set: Aβ peptide ELISA in H4 cells stably expressing wild-type human APP751. It is filed as cell-based. As to the method:
Human neuroglioma H4 cells stably expressing wild-type human APP751 were used for this assay. Briefly, cells were plated at 15,000 cells/well in 96-well plates and left to settle for 6 h (37 °C; 5 % CO2). Cells were then washed three times with Pro293™ chemically defined medium (Lonza, Walkersville, MD, USA) followed by the addition of the compound (0.3 % final DMSO). Plates were incubated overnight, and the supernatant was removed for quantification of Aβ peptides by sandwich enzyme-linked immunosorbent assay (ELISA) (see below). Cytotoxicity was evaluated using Cell-Titer 96 W AQueous One Solution Cell Proliferation Assay (MTS Assay, Promega) according to the manufacturer’s protocol.
(§1) Aβ peptide levels were quantified by sandwich ELISA using anti-Aβ38, anti-Aβ40, anti-Aβ42, (BioLegend, Dedham, MA, USA) or anti-Aβ37 for the capture and 4G8-horseradish peroxidase (HRP; BioLegend) for detection. When measuring Aβ37 and Aβ38, 4G8-HRP was added to the sample for overnight incubation, whereas it was added after the overnight incubation for 1 h for Aβ40 and Aβ42 measurements.
(§2) For cell-based assays, freshly collected samples of cultured cell supernatant were added to the plates and incubated at 4 °C for about 24 h. Detection was performed using SureBlue 3,3’,5,5’-tetramethylbenzidine (TMB) peroxidase substrate (KPL, Inc., Gaithersburg, MD, USA) and the plates read on a SpectraMax M5e microplate reader (Molecular Devices, Inc., Sunnyvale, CA, USA). GSM-treated samples were normalized to samples treated with DMSO alone (100 %) and 5 μM GSI, DAPT (0 %; Sigma-Aldrich). EC50 values were calculated from values reported as percentage of DMSO using nonlinear regression, based on a sigmoidal dose–response (variable slope) model.

Data set [2] is described as follows: Compound exposure in rats (LC-MS/MS, brain tissue binding). The settings on record: Wistar, oral, rat, 30 mg/kg, 6 h post-dose. Format: in vivo. As to the method:
Mice and rats were maintained on 12/12 h light/dark cycle with food available ad libitum. Drug treatment was prepared in a vehicle of 1 % carboxymethylcellulose (CMC):Tween80 (99.5:0.5). Twelve-week-old wild-type male mice (129S6, Taconic Biosciences, Hudson, NY, USA) or rats (Wistar, Charles River Laboratories) were administered compound p.o. without prior fasting and euthanized by CO2 asphyxiation at specified times post-dosing. After extraction of the brain, the olfactory bulb and hindbrain were removed and the cerebral hemispheres separated (mice) or cut in 4 pieces (rats). The cerebellum was removed for bioanalysis of the compound. CSF was collected from the cisterna magna and blood from a cardiac puncture.
Cerebellums were homogenized in a Mini-BeadBeater (Biospec Products, Inc., Bartlesville, OK, USA). Brain samples, plasma, and CSF were prepared for LC-MS/MS by precipitating proteins with acetonitrile and vacuum filtration in the presence of an internal standard. Standards were prepared in the corresponding matrix. FRM-36143 was resolved by HPLC (Shimadzu) using a reverse-phase C18 Kinetex column (30X2.1 mM; Phenomenex, Torrance, CA, USA). […]
The unbound fraction in brain homogenate (fu,b) was determined in triplicate in the Rapid Equilibrium Dialysis device (8000 Da molecular weight cut-off membrane, Thermo Scientific/Pierce Biotechnology, Rockford, IL, USA). […]

The test system of data set [3] is γ-secretase. Kind of data set: Aβ42 ELISA in mouse primary cortical neurons. Format: cell-based. The settings on record: overnight. As to the method:
Primary cultures were established from the neocortex of E17 CD1 mouse embryos (Charles River Laboratories, Wilmington, MA, USA). Following tissue dissection and trituration, the cultures were suspended in Neurobasal® medium (Invitrogen, Carlsbad, CA, USA) supplemented with 10 % horse serum (Sigma-Aldrich, St. Louis, MO, USA) and 520 μM L-glutamine. Cells were plated at 50,000 cells/well in 96-well poly-D-lysine-coated plates. Following incubation at 37 °C and 5 % CO2 for 4 h, the plating medium was exchanged with Neurobasal® medium supplemented with 2 % B-27® (Invitrogen), 520 μM of L-glutamine, and 1 % penicillin–streptomycin. […]
Aβ peptide levels were quantified by sandwich ELISA using anti-Aβ38, anti-Aβ40, anti-Aβ42, (BioLegend, Dedham, MA, USA) or anti-Aβ37 for the capture and 4G8-horseradish peroxidase (HRP; BioLegend) for detection. […]
For cell-based assays, freshly collected samples of cultured cell supernatant were added to the plates and incubated at 4 °C for about 24 h. Detection was performed using SureBlue 3,3’,5,5’-tetramethylbenzidine (TMB) peroxidase substrate (KPL, Inc., Gaithersburg, MD, USA) and the plates read on a SpectraMax M5e microplate reader (Molecular Devices, Inc., Sunnyvale, CA, USA). […] EC50 values were calculated from values reported as percentage of DMSO using nonlinear regression, based on a sigmoidal dose–response (variable slope) model.

Data set [4] relates to γ-secretase with FAD PS1 mutations (H163R, M233L, R278I). The data set can be described thus: HEK cells overexpressing APPsw with FAD PS1 mutations. Format: cell-based, human. Here is the method: as §1, §2
The extractions were performed according to the methods described by Okochi et al.. Briefly, human embryonic kidney (HEK) cells stably expressing APPsw and PS1 derivatives were cultured to confluence in 10-cm dishes and the media replaced on the day of the experiment. Cells were treated with FRM-36143 in the presence of proteasome inhibitors (1 […], 100 nM MG262, and […]) for 1 h. Conditioned media were collected and cells were washed with ice-cold PBS and then immediately boiled for 2 min. A monitoring peptide (IVTL) and protease inhibitors were then added to the boiled samples, which were sonicated for 5 s three times and centrifuged at 100,000 × g for 1 h. The resultant supernatants were precipitated with TCA on ice for 15 min, centrifuged at 100,000 × g for 1 h, and filtered before being subjected to LC-MS/MS analysis to measure the tri-, tetra-, and pentapeptides as described elsewhere.

Structures are written as SMILES. pEC50: −log10 of the molar value. Like-named read-outs stand apart in the source and are kept apart here.

Regarding `COc1nc(C2=NOC[C@H](c3cc4ccccc4o3)N2)ccc1-n1cnc(C)c1` [FRM-36143, (R)-5-(benzofuran-2-yl)-3-(6-methoxy-5-(4-methyl-1H-imidazol-1-yl)pyridin-2-yl)-5,6-dihydro-4H-1,2,4-oxadiazine], the pEC50 with γ-secretase [1] (H4 APP751 cells, overnight, ELISA, read-out: EC50 for Aβ37) is 6.73; in the data set with γ-secretase [1] (H4 APP751 cells, overnight, ELISA, read-out: EC50 for Aβ38) it was 7.42; in the data set on γ-secretase [1] (H4 APP751 cells, overnight, ELISA, read-out: EC50 for Aβ40), 6.78; in the data set with γ-secretase [1] (H4 cells expressing human WT APP751, overnight treatment, ELISA of conditioned media, read-out: EC50 for Aβ42) it was 7.46; in the data set with γ-secretase [1] (range over H4 cells and primary neurons, read-out: EC50 to reduce Aβ42 levels in cells), 7.28 to 7.46; with γ-secretase [3] it was 7.28. Moreover, in the data set with γ-secretase [1] (assay not stated, compared with unbound brain concentration), the 90% effect level (EC90) was put at 383 nM. The concentration at 6 h is 122 nM in data set [2] (CSF, read-out: CSF concentration) and 156 nM in data set [2] (brain (unbound), calculated using brain tissue binding, read-out: Unbound brain exposure). Moreover, the “Reversal of the effect of FAD PS1 mutations on APP processing” value in data set [4] (HEK APPsw with PS1 H163R, M233L or R278I, Aβ42:Aβ40, Aβ38:Aβ42, VVIA/VVIAT) was “able to reverse the effect of the mutations studied”. For the same compound, the “Aβ38:Aβ42 ratio (fourth cleavage step)” value in data set [4] (PS1 R278I mutant) is “significant increase”. For the same compound, the “Aβ42:Aβ40 ratio” value in data set [4] (PS1 R278I mutant) is reported as “remains unchanged”.
